Consider five compounds from patent publication US20130273557A1 (priority 2010, published 2013).

The test system of data set [1] is leak conductance of urea-treated SMVs. Briefly: Patch clamp recordings of urea-treated SMVs (F1 removed). The class given is biochemical, rat. On the procedure:
F1 subunits were removed from SMVs by adapting previously-established methods. 60 mg SMV's/1 mL IB was treated with 1 mL of […] for 5 min. on ice, then centrifuged at 21000×g for 10 min. The pellet was washed 3× in IB (centrifugation at 21000×g for 10 min) and stored in IB.
Giga-ohm seals were formed on SMVs using pipettes and solutions as above. Peak membrane conductance was measured as described above.
Background: In patch-clamp work, channel activity is measured electrically.

In data set [2] the test system is calcium (Ca2+)-induced membrane currents in rat liver mitoplasts. The note with it: cited from earlier work.
Data set [3] deals with models of cell death and NDDs. The conditions noted are these: non-dopaminergic mechanism; cited from earlier work.
The target in the next data set is complex V (F1FO ATPase) (Rattus norvegicus, UniProt P19511+Q06647). The experiment in a line: ATP hydrolysis in SMVs, luciferin-luciferase assay. The class given is biochemical. The note with it: in these assays (NADH and luciferase). Also on record: from tissue; host or cells: rat brain mitochondria, lubrol-insoluble submitochondrial vesicles (SMVs). The source says:
3 wells were used for each condition, repeated at least 3× on different SMV isolations.

The target in data set [4] is T1, intermediate- and large-conductance channel activity of PSI-mitochondria (Rattus norvegicus, UniProt P19511+Q06647).
T1 sequence (P19511 43-256): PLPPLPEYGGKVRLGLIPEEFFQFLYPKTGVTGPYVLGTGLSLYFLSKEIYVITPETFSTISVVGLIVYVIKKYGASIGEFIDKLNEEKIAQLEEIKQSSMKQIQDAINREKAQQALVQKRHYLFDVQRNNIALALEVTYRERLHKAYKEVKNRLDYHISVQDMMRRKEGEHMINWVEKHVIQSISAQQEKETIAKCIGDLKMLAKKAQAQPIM
T1 sequence (Q06647 24-213): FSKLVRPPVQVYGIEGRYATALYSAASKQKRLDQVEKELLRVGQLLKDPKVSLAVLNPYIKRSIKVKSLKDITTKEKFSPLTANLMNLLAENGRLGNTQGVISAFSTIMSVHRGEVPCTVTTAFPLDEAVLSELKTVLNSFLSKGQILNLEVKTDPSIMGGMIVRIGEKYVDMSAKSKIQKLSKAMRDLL
Briefly: Patch clamp recording of brain-derived PSI-mitochondria. The conditions noted are these: subcortex mitochondria vs control animals. The class given is biochemical. On the procedure:
Isolation of Brain-derived Mitochondria. Standard techniques were adapted for isolating brain-derived mitochondria. Mitochondria were stored in isolation buffer (IB) at −80° C. For PSI-mitochondria, male Sprague-Dawley rats (6 wo, ˜200 gm, 3-6 rats/group/condition, at least 2 different preparations/experimental paradigm) were injected with the ubiquitin proteasome inhibitor Z-Ile-Glu(OtBu)-Ala-Leu-al (PSI; Peptides International Inc, Kentucky, USA; s.c. every other day for 1 or 2 weeks; 6.0 mg/kg PSI in DMSO, or with DMSO, 200 μL/rat), and mitochondria isolated and stored as above.
Reagents were rapidly perfused into the recording chamber.

Another data set relates to C2C12 myoblasts. The experiment in a line: OCR and ECAR in C2C12 myoblasts (Seahorse). The class given is cell-based, mouse. The note with it: dexpramipexole 30 μM or PSI 30 nM alone, 18 hr. How it is done:
(§1) The C2C12 mouse myoblast cell line (ATCC, Manasses, Va.) was cultured in Dulbecco's Modified Eagle Medium (DMEM; Gibco®; Carlsbad, Calif.) supplemented with 10% fetal bovine serum (FBS), 2 mM GlutaMax® and penicillin/streptomycin. Cells were maintained in 10% CO2 humidified at 37° C.
OCR and ECAR were measured with a Seahorse® XF24 Flux Analyzer (Seahorse Bioscience, Billerica, Mass.). For PSI experiments on C2C12 cells, basal values were assessed in non-buffered DMEM Assay Medium without glucose, glutamine or pyruvate, and supplemented with 25 mM glucose, 6 mM Glutamax®, and 1 mM sodium pyruvate. […] Succinate and ADP stocks were diluted to 10× concentrations in pre-warmed XF MAS buffer, pH 7.2. Using a Plate Prep Station (Seahorse Bioscience, Billerica, Mass.), cells were washed with 1 mL buffer and were brought to 607 μL with buffer. […] Raw basal OCR and ECAR values were normalized as a percent of the mean control value for each individual experiment. Normalized data from experiments were expressed as mean±SEM.

In data set [5] the test system is SH-SY5Y neuroblastoma cells. The experiment in a line: PSI-induced cell death in SH-SY5Y cells (CellTiter-Blue). The note with it: 24 hr exposure to PSI at 150 or 650 nM. On the procedure: Data shown represent mean±SEM. […] Bar graphs represent normalized mean±SEM. Cell viability was measured by CellTiter-Blue®; n=41-98 wells/condition.
Undifferentiated SH-SY5Y human neuroblastoma cells (ATCC, Manasses, Va.) were maintained in humidified 5% CO2 in 1:1 Ham's F12 nutrient mixture with Glutamax® and Minimal Essential Medium with L-glutamine (MEM-Alpha), 10% FBS, and 1% penicillin/streptomycin (Gibco® Invitrogen Corp., Carlsbad, Calif.).
(§2) Cellular viability was measured using CellTiter-Blue® (Promega Corp., Madison, Wis.) in black-walled optical imaging multiwell plates, and cellular ATP was measured using the CellTiter-Glo® (Promega Corp., Madison, Wis.) luminescence assay in opaque-walled multiwell plates according to the manufacturer's protocol.
On the technique in general: Resazurin is reduced to fluorescent resorufin, in cell work by metabolically active cells.

Data set [6] relates to C2C12 cells. The class given is cell-based, mouse. On the procedure: (§3) Data are presented as a percentage of the vehicle-treated control ±SEM (n=10 wells at each concentration). […] Experiments commenced 18 hr. after addition of drug. […] Data are presented as a percentage of the vehicle-treated control±SEM (n=14-17 wells for each group).
as §1, §2

Data set [7] relates to C2C12 cells. On the procedure: as §3, §1, §2
For data set [8], the system named is digitonin-treated cortical neurons. The experiment in a line: ATP production following ADP pulse in digitonin-treated cortical neurons. The class given is cell-based, rat. The conditions noted are these: dexpramipexole 30 μM.

A value given as a limit tells only on which side of the number the result lay.

As to `Nc1ncnc2c1ncn2[C@@H]1O[C@H](COP(=O)(O)OP(=O)(O)OP(=O)(O)O)[C@@H](O)[C@H]1O` [ATP, adenosine triphosphate, reference compound], the “leak conductance after removal of F1” value in [1] was “still very effectively decreased the leak conductance”.

As for `CCCN[C@H]1CCc2nc(N)sc2C1` [pramipexole, (6S)-4,5,6,7-tetrahydro-N6-propyl-2,6-benzothiazole-diamine, reference compound], the “Ca2+-induced membrane currents” value in data set [2] is given as “inhibit”. The protective concentrations in data set [3] was ≥ 10 µM.

For the compound `CC[C@H]1/C=C/C=C/C[C@@H](C)[C@H](O)[C@@](C)(O)C(=O)[C@@H](C)[C@H](O)[C@@H](C)C(=O)[C@@H](C)[C@H](O)[C@@H](C)/C=C/C(=O)O[C@@H]2[C@H](C)[C@H](CC1)O[C@]1(CC[C@H](C)[C@H](C[C@@H](C)O)O1)[C@H]2C` [oligomycin, reference compound], the ATP hydrolysis result on complex V (F1FO ATPase) is reported as “effectively inhibited ATP hydrolysis”.

Turning to “Z-Ile-Glu(OtBu)-Ala-Leu-H [PSI, reference compound]”, in data set [4], the “intermediate- and large-conductance mitochondrial ion channel activity after repeated pre-treatment of rats” value was “significant increase”. For the same compound, in the data set on C2C12 myoblasts, the ECAR entry was “very significant increase in ECAR” and the OCR entry is “did not display a significant change in OCR”. For the same compound, the cell viability entry in data set [5] was “significant decreases in cell viability”. Besides, in the data set with C2C12 cells [6], the ATP levels entry was “neither ATP levels nor cell viability (FIG. 5b) were significantly affected”. The “concentrations reducing cellular viability” value in the data set on C2C12 cells [7] (18 hr exposure) is > 60 nM. Besides, the cell viability entry with C2C12 cells [7] (dexpramipexole 30 μM or PSI 30 nM, 18 hr, relative to control) is recorded as “neither ATP levels nor cell viability (FIG. 5b) were significantly affected”.

Consider antimycin A [reference compound], for which, in data set [8], the “initial slope of ATP synthesis following an ADP pulse” value is on record as “significantly reduced” and the “maximal ATP levels” value is “significantly reduced”.
